Laboratory results as given in article PMC8915600, “Optimization of experimental conditions for skin-PAMPA measurements” (ADMET & DMPK, 2020).
Like-named read-outs stand apart in the source and are kept apart here. Marks after values point to notes of the source that are not given here.

What was measured:
[1] = skin-PAMPA permeability assay (gradient-pH, UPLC-DAD); settings: for RM (membrane retention): mole fraction, neutral form
[2] = logarithm of human skin permeation coefficient, neutral form; corrected for ionization in water and for temperature at 37 °C; cited from earlier work
[3] = PAMPA
[4] = cited from earlier work
[5] = parameters: method as in earlier work; settings: octanol-water partition coefficient; cited from earlier work
[6] = with stirring, 30 min incubation
[7] = without stirring, 30 min incubation
[8] = without stirring, 4 h incubation
[9] = without stirring, 24 h incubation

| Compound | RM (membrane retention) [1, 6] | RM (membrane retention) ([1]; with stirring, 4 h incubation) | RM (membrane retention) ([1]; with stirring, 24 h incubation) | RM (membrane retention) [1, 7] | RM (membrane retention) [1, 8] | RM (membrane retention) [1, 9] | log Kp [2] | log Pe [3] | pKa [4] | Papp at 4 h, 50 μM ([1]; PAMPA, log Pe, with stirring, 4 h incubation, neutral form (donor pH 3.0, aminopyrine pH 7.0), acceptor pH 7.4, 32 °C) | Papp at 30 min, 50 μM ([1]; PAMPA, log Pe, without stirring, 30 min incubation, neutral form (donor pH 3.0, aminopyrine pH 7.0), acceptor pH 7.4, 32 °C) | Papp at 4 h, 50 μM ([1]; PAMPA, log Pe, without stirring, 4 h incubation, neutral form (donor pH 3.0, aminopyrine pH 7.0), acceptor pH 7.4, 32 °C) | log Pe ([1]; optimized assay conditions (4 h incubation, stirring), measured at the pH corresponding to the neutral form, acceptor pH 7.4) | log Pe ([1]; with stirring, 30 min incubation, neutral form (donor pH 3.0, aminopyrine pH 7.0), acceptor pH 7.4, 32 °C) | log Po/w [5] |
| --- | --- | --- | --- | --- | --- | --- | --- | --- | --- | --- | --- | --- | --- | --- | --- |
| C[C@H]1O[C@@H](O[C@H]2[C@@H](O)C[C@H](O[C@H]3[C@@H](O)C[C@H](O[C@H]4CC[C@@]5(C)[C@H](CC[C@@H]6[C@@H]5CC[C@]5(C)[C@@H](C7=CC(=O)OC7)CC[C@]65O)C4)O[C@@H]3C)O[C@@H]2C)C[C@H](O)[C@@H]1O [Digitoxin] | 0.00 | 0.22(±0.04) | 0.29(±0.05) | 0.00 | 0.09(±0.03) | 0.25(±0.02) | -8.15 cm/s | -6.34(±0.13) cm/s |  |  |  |  |  |  |  |
| CC(C(=O)O)c1ccc(-c2ccccc2)c(F)c1 (stereo not shown) [Flurbiprofen] | 0.18(±0.03) | 0.00 | 0.00 | 0.13(±0.02) | 0.00 | 0.00 | -4.72 cm/s |  | 4.19 ^c | 204 ×10⁻⁶ cm/s | 288 ×10⁻⁶ cm/s | 141 ×10⁻⁶ cm/s | -3.69±0.01 cm/s | -2.98(±0.13) cm/s | 4.16 |
